From patent US20240285656A1, “CANNABIDIOL (CBD) AND TERPENE F[…] INCREASES RESTORATIVE SLEEP IN HUMANS” (Defined Research, Inc., priority 2022, published 2024)

Experiments:
[1] = cited from earlier work
[2] = rodents; cited from earlier work
[3] = after one week of dosing; effect blocked by flumazenil; cited from earlier work
[4] = preclinical data; cited from earlier work
[5] = system: GABAA receptor; conditions: cited from earlier work; for GABAA receptor activity in cells: cell experiments
[6] = system: GABAA receptor; conditions: cited from earlier work
[7] = target: T1, SSADH (Homo sapiens, UniProt P51649); conditions: cited from earlier work
T1 sequence (P51649 48-535): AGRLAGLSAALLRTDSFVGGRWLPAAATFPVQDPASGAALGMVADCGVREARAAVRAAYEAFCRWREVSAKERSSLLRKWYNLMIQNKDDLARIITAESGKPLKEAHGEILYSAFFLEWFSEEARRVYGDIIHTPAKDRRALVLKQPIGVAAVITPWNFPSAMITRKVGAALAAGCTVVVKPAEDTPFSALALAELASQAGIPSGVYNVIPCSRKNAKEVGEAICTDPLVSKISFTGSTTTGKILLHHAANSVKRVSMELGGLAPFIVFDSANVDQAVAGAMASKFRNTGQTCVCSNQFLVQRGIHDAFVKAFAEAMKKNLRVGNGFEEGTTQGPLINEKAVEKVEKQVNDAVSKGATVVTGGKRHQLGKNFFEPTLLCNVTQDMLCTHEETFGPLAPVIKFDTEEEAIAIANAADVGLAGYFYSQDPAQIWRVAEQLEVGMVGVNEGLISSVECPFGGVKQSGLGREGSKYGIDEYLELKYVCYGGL

[8] = Clinical study 1 (Le Rêve 1.0): sleep physiology by Whoop sleep-tracking wristband, double-blind placebo-controlled crossover; format: in vivo, humans; conditions: participant DR11; 7 days per treatment; relative to placebo
Method: Two independent clinical studies were completed to determine the effects of the CBD formulation on the structure and function of sleep physiology. Each of these independent studies were performed as a double-blind, placebo-controlled, randomized, crossover investigational study to determine if the CBD formulation influences sleep physiology in humans.
Primary sleep physiology data was collected from study participants in a completely unbiased manner from a non-invasive sleep-tracking wristband, called “Whoop” (https://www.whoop.com), which electronically collects and transmits sleep data from study participants in the comfort of their own beds. The wristband collects hundreds of data points per second from a 3-axis accelerometer, 3-axis gyroscope, and heart rate sensor. The wristband can accurately measure latency to fall asleep, total sleep time, sleep fragmentation, as well as the time spent in each sleep stage [Light, Slow Wave (Deep), Rapid Eye Movement (REM), and Awake]. The wristband also collects data using photoplethysmography (PPG), a technique that involves measuring blood flow by assessing superficial changes in blood volume. Heart rate, heart rate variability, and respiratory rate, can all be derived from PPG data, and all of these metrics are used in Whoop's sleep detection and staging algorithms. […]

[9] = Clinical study 1: sleep survey / Participant Global Impression (PGI) questionnaire; format: in vivo, humans; conditions: participant DR11; sleep survey at end of treatment period
From the text: FIG. 7 is a graph showing the Study Participants Perceived That the CBD formulation Helped Them Sleep Better [p=0.13; (t test). n=23 responders per treatment group. Values are means±SEM]. At the end of each treatment period, study participants used a PGI questionnaire to determine if the treatment influenced their sleep relative to a baseline period before the treatments were initiated. Scoring Matrix: 1=Treatment Helped; 2-No Effect of Treatment; 3-Treatment Worsened.
In the first study, participants (N=23) were randomized to take a placebo control or the CBD formulation stated as Defined CBD in the Figures (˜300 mg CBD, ˜8 mg terpenes including linalool, myrcene, phytol, limonene, α-terpinene, α-terpineol, α-pinene, and β-caryophyllene) once daily, one hour before bedtime, for seven consecutive nights. […] Indeed, on average, over seven days of treatment, participant DR11 benefitted from nearly an extra hour of restorative sleep each night relative to the placebo control (FIG. 2B). Furthermore, participant DR11 was also able to perceive an improvement in their sleep quality and duration relative to the placebo control when they responded to a clinically validated sleep survey at the end of the treatment periods (as shown in Table 1).
At the end of each treatment period in the clinical studies, participants completed a modified version of a clinically validated questionnaire entitled the Participant Global Impression (PGI)^28. PGI assessments are based on the participant's global perception of the effects of treatment on sleep during each treatment period, as compared to their sleep during the baseline period of the study. […] Nevertheless, based on post-hoc power analysis performed, this effect would achieve statistical significance with a larger sample number.

[10] = Clinical study 1: modified Hamilton Anxiety Rating Scale; format: in vivo, humans; conditions: responders n=10; placebo 15
From the text: FIGS. 8A-8C are graphs showing the CBD formulation Decreasing Anxiety. At the end of each treatment period, study participants completed a clinically-validated survey entitled the Hamilton Anxiety Rating Scale^29. Each item in this rating scale is scored on a scale of 0 (not present) to 4 (severe), with a total score range of 0-53, where <14 indicates mild severity, 15-21 mild to moderate severity, and 22-27 moderate to severe. Based on this survey, the CBD formulation decreases anxiety in participants DR13 (FIG. 8A), DR16 (FIG. 8B), and DR21 (FIG. 8C) relative to the placebo control or CBD alone.
FIG. 9A is a graph showing the CBD formulation decreases Anxiety in “Responders”. […] Each item in this rating scale is scored on a scale of 0 (not present) to 4 (severe), with a total score range of 0-53, where <14 indicates mild severity, 15-21 mild to moderate severity, and 22-27 moderate to severe. […]
To measure the effects of the CBD formulation on anxiety, study participants completed a modified version of the Hamilton Anxiety Rating Scale, one of the first rating scales developed to measure the severity of anxiety symptoms that is widely used in clinical and research settings^29. […] Each item is scored on a scale of 0 (not present) to 4 (severe), with a total score range of 0-53, where <14 indicates mild severity, 15-21 mild to moderate severity, and 22-27 moderate to severe.

[11] = given before simulation public speaking test; vs placebo; cited from earlier work

CCCCCc1cc(O)c2c(c1)OC(C)(C)[C@@H]1CCC(C)=C[C@@H]21 [THC, tetrahydrocannabinol]
anxiety-promoting properties in clinical studies ([1]; in vivo): anxiogenic

C=C(C)C1CC=C(C)CC1 (centres unmarked) [limonene, 1-methyl-4-prop-1-en-2-ylcyclohexene]
locomotor activity [2]: reduced | motor coordination [2]: impaired | sleep [2]: induced sleep | brain GABA levels [3]: increased | sedation in animals [4]: induce sedation

C=CC(C)(O)CCC=C(C)C (centres unmarked) [linalool]
GABAA receptor activity in cells [5]: significantly augment | binding to the GABA site or the benzodiazepine site of the GABAA receptor [6]: does not bind | sleep [2]: increases sleep | sedation in animals [4]: induce sedation

C=CC(=C)CCC=C(C)C [myrcene, 7-methyl-3-methylene-1,6-octadiene]
GABAA receptor activity in cells [5]: increased | sedation in animals [4]: induce sedation

C/C(=C\CO)CCC[C@H](C)CCC[C@H](C)CCCC(C)C [phytol, (2E,7R,11R)-3,7,11,15-Tetramethylhexadec-2-en-1-ol]
inhibition of SSADH [7]: inhibiting | sedative effects blocked by flumazenil [2]: blocked | sedation in animals [4]: induce sedation

CC1=CCC2CC1C2(C)C (stereo not drawn) [α-pinene, 2,6,6-trimethylbicyclo[3.1.1]hept-2-ene]
GABAA receptor activity in cells [5]: increased | effect in neurons blocked by flumazenil ([5]; neurons, flumazenil (benzodiazepine site antagonist)): fully blocked | sedative effects blocked by flumazenil [2]: blocked | sedation in animals [4]: induce sedation

CC1=CC=C(C(C)C)CC1 [α-terpinene, 1-methyl-4-propan-2-ylcyclohexa-1,3-diene]
sedation in animals [4]: induce sedation

CC1=CCC(C(C)(C)O)CC1 (stereo not drawn) [α-terpineol, 2-(4-methylcyclohex-3-en-1-yl)propan-2-ol]
GABAA receptor activity in cells [5]: increase | sedation in animals [4]: induce sedation

C=C1CC/C=C(\C)CC[C@@H]2[C@@H]1CC2(C)C [β-caryophyllene]
locomotor activity [2]: did not affect | motor coordination [2]: did not affect | sleep [2]: mildly promote sleep | sedation in animals [4]: induce sedation

cannabidiol [CBD alone]
increase in percentage of time spent in REM sleep [8]: about 4% | increase in percentage of time spent in restorative sleep [8]: about 2% | Decreased Sleep Onset [9]: No | Improved Sleep [9]: No | Lengthened Sleep Duration [9]: No | Hamilton Anxiety Rating Scale score [10]: 11 | anxiety, cognitive impairment and discomfort [11]: significantly reduced | hyper-alertness in anticipatory speech [11]: significantly decreased | block of the anxiogenic effects of THC ([1]; clinical studies): can be blocked
